Experimental data from EPA's CvTdb concentration-time database.

Legend:
Test in all cases: concentration in plasma after dosing
Rat [1] = details: dosed: Isoeugenol, 17 mg/kg, oral, Male, F344/N
Rat [2] = details: dosed: Isoeugenol, 17 mg/kg, oral, Female, F344/N
Rat [3] = details: dosed: Isoeugenol, 17 mg/kg, oral, Male, F344/N; remark: listed apart in the source
Rat [4] = details: dosed: Isoeugenol, 70 mg/kg, oral, Male, F344/N
Rat [5] = details: dosed: Isoeugenol, 17 mg/kg, oral, Male, F344/N; remark: listed apart in the source
Rat [6] = details: dosed: Tetralin, 20 mg/kg, iv, Female, Harlan Sprague Dawley
Rat [7] = details: dosed: Tetralin, 2 mg/kg, iv, Male, F344

Row | SMILES | concentration in plasma (Rat [1]; 0.5 h) | concentration in plasma (Rat [1]; 2 h) | concentration in plasma (Rat [2]; 0.5 h) | concentration in plasma (Rat [2]; 8 h) | concentration in plasma (Rat [3]; 0.75 h) | concentration in plasma (Rat [3]; 8 h) | concentration in plasma (Rat [4]; 5 min) | concentration in plasma (Rat [4]; 1.5 h) | concentration in plasma (Rat [5]; 10 min) | concentration in plasma (Rat [5]; 3 h) | concentration in plasma (Rat [6]; 0.5017 h) | concentration in plasma (Rat [6]; 8 h) | concentration in plasma (Rat [7]; 308 s) | concentration in plasma (Rat [7]; 4 h)
1 | C/C=C/c1ccc(O)c(OC)c1 [Isoeugenol] | 95.4 ng/mL | 30.2 ng/mL | 243 ng/mL | 18 ng/mL | 57 ng/mL | 19.5 ng/mL | 526 ng/mL | 209 ng/mL | 220 ng/mL | 17.2 ng/mL | – | – | – | –
2 | c1ccc2c(c1)CCCC2 [Tetralin] | – | – | – | – | – | – | – | – | – | – | 5.04 µg/g | 0.0561 µg/g | 1.77 µg/g | 0.00972 µg/g
